Assays:
[1] = system: MATIN; experiment: Pre-emergence action against MATIN; format: in vivo, Matricaria inodora; conditions: Dosage 320 g/ha, pre-emergence
How it was run: (§1)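 Seeds sown in sandy loam in wood-fiber pots and covered with soil. Greenhouse growth; visual damage scored after 3 weeks versus untreated controls (100% = dead, 0% = like control).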

[2] = system: HORMU; experiment: Post-emergence action against HORMU; format: in vivo, Hordeum murinum; conditions: dosage 80 g/ha
Procedure: (§2) Seeds of monocotyledonous and dicotyledonous weed and crop plants are laid out in sandy loam soil in wood-fiber pots, covered with soil and cultivated in a greenhouse under good growth conditions. 2 to 3 weeks after sowing, the test plants are treated at the one-leaf stage. The compounds of the invention, formulated in the form of wettable powders (WP) or as emulsion concentrates (EC), are then sprayed onto the green parts of the plants in the form of an aqueous suspension or emulsion at a water application rate equating to […], with addition of 0.2% wetting agent. After the test plants have been left to stand in the greenhouse under optimal growth conditions for about 3 weeks, the action of the preparations is assessed visually in comparison to untreated controls (herbicidal action in percent (%): 100% activity=the plants have died, 0% activity=like control plants). […] At the same time, inventive compounds leave Gramineae crops such as barley, wheat, rye, millet/Sorghum, corn or rice virtually undamaged when applied post-emergence, even at high active ingredient dosages. In addition, some substances are also harmless to dicotyledonous crops such as soya, cotton, oilseed rape, sugar beet or potatoes. Some of the compounds according to the invention have high selectivity and are therefore suitable for controlling unwanted vegetation in agricultural crops by the post-emergence method. The data of Tables B18 to B34 below illustrate, in an exemplary manner, the […] herbicidal action of the compounds according to the invention, the herbicidal activity being stated in percent.

[3] = system: ABUTH; experiment: Pre-emergence action against ABUTH; format: in vivo, Abutilon theophrasti; conditions: pre-emergence, dosage 320 g/ha, scored visually after 3 weeks vs untreated controls
How it was run: as §1

[4] = system: AVEFA; experiment: Pre-emergence action against AVEFA; format: in vivo, Avena fatua; conditions: dosage 320 g/ha, scored visually after 3 weeks vs untreated controls
How it was run: as §1

[5] = system: MATIN; experiment: Post-emergence action against MATIN; format: in vivo, Matricaria inodora; conditions: post-emergence, dosage 80 g/ha, visual assessment about 3 weeks after treatment vs untreated controls
How it was run: (§3)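 Post-emergence foliar spray on greenhouse plants at the one-leaf stage, using wettable-powder or emulsion-concentrate formulations in water (600 to […], plus 0.2% wetting agent). Damage scored by eye roughly 3 weeks later against untreated plants: 0% = like control, 100% = dead.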

[6] = system: VIOTR; experiment: Pre-emergence action against VIOTR; format: in vivo, Viola tricolor; conditions: Dosage 320 g/ha, pre-emergence
How it was run: as §1

[7] = system: VERPE; experiment: Post-emergence action against VERPE; format: in vivo, Veronica persica; conditions: dosage 80 g/ha
How it was run: as §3

[8] = system: ECHCG; experiment: Post-emergence action against ECHCG; format: in vivo, Echinochloa crus-galli; conditions: post-emergence, dosage 80 g/ha, visual assessment about 3 weeks after treatment vs untreated controls
How it was run: as §3

[9] = system: LOLRI; experiment: Pre-emergence action against LOLRI; format: in vivo, Lolium rigidum; conditions: dosage 320 g/ha, scored visually after 3 weeks vs untreated controls
How it was run: as §1

[10] = system: HORMU; experiment: Pre-emergence action against HORMU; format: in vivo, Hordeum murinum; conditions: Dosage 320 g/ha
How it was run: as §1

[11] = system: AVEFA; experiment: Post-emergence action against AVEFA; format: in vivo, Avena fatua; conditions: post-emergence, dosage 80 g/ha, visual assessment about 3 weeks after treatment vs untreated controls
How it was run: as §3

[12] = system: PHBPU; experiment: Post-emergence action against PHBPU; format: in vivo, Pharbitis purpurea; conditions: post-emergence, dosage 80 g/ha
How it was run: as §3

[13] = system: STEME; experiment: Post-emergence action against STEME; format: in vivo, Stellaria media; conditions: post-emergence, dosage 80 g/ha
How it was run: as §3

[14] = system: VERPE; experiment: Pre-emergence action against VERPE; format: in vivo, Veronica persica; conditions: Dosage 320 g/ha, pre-emergence
How it was run: as §1

[15] = system: STEME; experiment: Pre-emergence action against STEME; format: in vivo, Stellaria media; conditions: Dosage 320 g/ha, pre-emergence
How it was run: as §1

[16] = system: CYPES; experiment: Pre-emergence action against CYPES; format: in vivo, Cyperus esculentus; conditions: pre-emergence, dosage 320 g/ha, scored visually after 3 weeks vs untreated controls
How it was run: as §1

[17] = system: ALOMY; experiment: Post-emergence action against ALOMY; format: in vivo, Alopecurus myosuroides; conditions: Dosage 80 g/ha, post-emergence
How it was run: as §3

[18] = system: ALOMY; experiment: Pre-emergence action against ALOMY; format: in vivo, Alopecurus myosuroides; conditions: dosage 320 g/ha; pre-emergence; scored visually after 3 weeks vs untreated controls; 100% = plants have died, 0% = like control plants
How it was run: as §1

[19] = system: AMARE; experiment: Pre-emergence action against AMARE; format: in vivo, Amaranthus retroflexus; conditions: pre-emergence, dosage 320 g/ha, scored visually after 3 weeks vs untreated controls
How it was run: as §1

[20] = system: SETVI; experiment: Pre-emergence action against SETVI; format: in vivo, Setaria viridis; conditions: pre-emergence, dosage 320 g/ha, scored visually after 3 weeks vs untreated controls
How it was run: as §1

[21] = system: VIOTR; experiment: Post-emergence action against VIOTR; format: in vivo, Viola tricolor; conditions: post-emergence, dosage 80 g/ha
How it was run: as §3

[22] = system: AMARE; experiment: Post-emergence action against AMARE; format: in vivo, Amaranthus retroflexus; conditions: post-emergence, dosage 80 g/ha, visual assessment about 3 weeks after treatment vs untreated controls
How it was run: as §3

[23] = system: POLCO; experiment: Post-emergence action against POLCO; format: in vivo, Polygonum convolvulus; conditions: post-emergence, dosage 80 g/ha
How it was run: as §3

[24] = system: PHBPU; experiment: Pre-emergence action against PHBPU; format: in vivo, Pharbitis purpurea; conditions: Dosage 320 g/ha, pre-emergence
How it was run: as §1

[25] = system: CYPES; experiment: Post-emergence action against CYPES; format: in vivo, Cyperus esculentus; conditions: post-emergence, dosage 80 g/ha, visual assessment about 3 weeks after treatment vs untreated controls
How it was run: as §3

[26] = system: LOLRI; experiment: Post-emergence action against LOLRI; format: in vivo, Lolium rigidum; conditions: dosage 80 g/ha, visual assessment about 3 weeks after treatment vs untreated controls
Procedure: as §2

[27] = system: ABUTH; experiment: Post-emergence action against ABUTH; format: in vivo, Abutilon theophrasti; conditions: post-emergence, dosage 80 g/ha, visual assessment about 3 weeks after treatment vs untreated controls
How it was run: as §3

[28] = system: POLCO; experiment: Pre-emergence action against POLCO; format: in vivo, Polygonum convolvulus; conditions: Dosage 320 g/ha, pre-emergence
How it was run: as §1

[29] = system: ECHCG; experiment: Pre-emergence action against ECHCG; format: in vivo, Echinochloa crus-galli; conditions: pre-emergence, dosage 320 g/ha, scored visually after 3 weeks vs untreated controls
How it was run: as §1

[30] = system: SETVI; experiment: Post-emergence action against SETVI; format: in vivo, Setaria viridis; conditions: post-emergence, dosage 80 g/ha, visual assessment about 3 weeks after treatment vs untreated controls
How it was run: as §3

[31] = system: LOLMU; experiment: Post-emergence action against LOLMU; format: in vivo, Lolium multiflorum; conditions: dosage 80 g/ha, visual assessment about 3 weeks after treatment vs untreated controls
How it was run: as §3

[32] = system: LOLMU; experiment: Pre-emergence action against LOLMU; format: in vivo, Lolium multiflorum; conditions: dosage 320 g/ha, scored visually after 3 weeks vs untreated controls
How it was run: as §1

SMILES	Pre-emergence action against MATIN [1] [%]	Pre-emergence action against ABUTH (herbicidal activity) [3] [%]	Pre-emergence action against AVEFA (herbicidal activity) [4] [%]	Post-emergence action against MATIN (herbicidal action in percent) [5] [%]	Pre-emergence action against VIOTR [6] [%]	Post-emergence action against VERPE [7]	Post-emergence action against ECHCG (herbicidal action in percent) [8] [%]	Post-emergence action against PHBPU [12]	Post-emergence action against STEME [13]	Pre-emergence action against VERPE [14] [%]	Pre-emergence action against STEME [15] [%]	Pre-emergence action against ALOMY (herbicidal activity in percent) [18] [%]	Pre-emergence action against AMARE (herbicidal activity) [19] [%]	SETVI (Table B8, pre-emergence herbicidal activity) [20] [%]	Post-emergence action against VIOTR [21]	Post-emergence action against AMARE (herbicidal action in percent) [22] [%]	Post-emergence action against POLCO [23]	Pre-emergence action against PHBPU [24] [%]	Post-emergence action against CYPES (herbicidal action in percent) [25] [%]	Post-emergence action against ABUTH (herbicidal action in percent) [27] [%]	other results
CCn1nnnc1NC(=O)c1ccc(C(F)(F)F)c(C(=O)C2CC2)c1SC [2-60]	100	100	100	90	100	100	100	100	100	100	100	100	100	100	100	100	90	100	90	100	Post-emergence action against HORMU [2]: 100; Pre-emergence action against LOLRI (herbicidal activity) [9]: 100%; Pre-emergence action against HORMU [10]: 100%; Post-emergence action against AVEFA (herbicidal action in percent) [11]: 80%; Pre-emergence action against CYPES (herbicidal activity) [16]: 100%; Post-emergence action against ALOMY [17]: 100%; Post-emergence action against LOLRI (herbicidal action in percent) [26]: 90%; Pre-emergence action against POLCO [28]: 100%; Pre-emergence action against ECHCG (herbicidal activity) [29]: 100%; Post-emergence action against SETVI (herbicidal action in percent) [30]: 100%
CCn1nnnc1NC(=O)c1ccc(C(F)F)c(C(=O)C2CC2)c1SC [2-67]	100	100	100	100	100	90	100	100	100	100	100	100	100	100	100	100	100	90	80	100	Post-emergence action against HORMU [2]: 80; Pre-emergence action against LOLRI (herbicidal activity) [9]: 100%; Pre-emergence action against HORMU [10]: 100%; Post-emergence action against AVEFA (herbicidal action in percent) [11]: 100%; Post-emergence action against ALOMY [17]: 100%; Post-emergence action against LOLRI (herbicidal action in percent) [26]: 80%; Pre-emergence action against POLCO [28]: 90%; Pre-emergence action against ECHCG (herbicidal activity) [29]: 100%; Post-emergence action against SETVI (herbicidal action in percent) [30]: 100%
CCn1nnnc1NC(=O)c1ccc(Cl)c(C(=O)C2CC2)c1Cl [2-116]	100	100	90	90	100	90	90	100	90	100	90	100	100	100	100	90	90	90	80	80	Post-emergence action against AVEFA (herbicidal action in percent) [11]: 90%; Pre-emergence action against CYPES (herbicidal activity) [16]: 90%; Post-emergence action against LOLMU (herbicidal action in percent) [31]: 90%; Post-emergence action against ALOMY [17]: 80%; Pre-emergence action against POLCO [28]: 90%; Pre-emergence action against ECHCG (herbicidal activity) [29]: 100%; Post-emergence action against SETVI (herbicidal action in percent) [30]: 90%; Pre-emergence action against LOLMU (herbicidal activity) [32]: 100%
CCCn1nnnc1NC(=O)c1ccc(C(F)F)c(C(=O)C2CC2)c1SC [3-67]	100	100	100	100	100	80	100	100	100	100	90	100	100	100	100	100	80	100	80	100	Post-emergence action against HORMU [2]: 80; Pre-emergence action against LOLRI (herbicidal activity) [9]: 100%; Pre-emergence action against HORMU [10]: 100%; Pre-emergence action against CYPES (herbicidal activity) [16]: 100%; Post-emergence action against LOLRI (herbicidal action in percent) [26]: 80%; Pre-emergence action against POLCO [28]: 90%; Pre-emergence action against ECHCG (herbicidal activity) [29]: 100%; Post-emergence action against SETVI (herbicidal action in percent) [30]: 100%
